Source: PMC11078216, “Discovery of potent and selective activity-based probes (ABPs) for the deubiquitinating enzyme USP30” (RSC Chemical Biology, 2024)

Columns and labels:
[1] = molecular target: T1, UCHL1 (Homo sapiens, UniProt P09936); assay: In-cell target engagement using HA-Ub-VME competition, immunoblot; assay type: cell-based; parameters: endogenous in cells; host or cells: HEK293T; conditions: HEK293T cells, 1 hour, in-lysate HA-Ub-VME competition, western blot
T1 sequence (P09936 1-223): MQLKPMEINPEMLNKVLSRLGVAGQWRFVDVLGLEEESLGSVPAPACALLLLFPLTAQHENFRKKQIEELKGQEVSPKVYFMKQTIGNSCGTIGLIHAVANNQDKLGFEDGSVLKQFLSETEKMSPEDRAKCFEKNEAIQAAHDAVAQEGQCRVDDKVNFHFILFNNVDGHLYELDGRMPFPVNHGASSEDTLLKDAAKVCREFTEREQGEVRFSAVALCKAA
Procedure: We next determined cellular engagement of endogenous USP30 with IMP-2587 or IMP-2586. […] In-cell concentration-dependent competition by IMP-2587 and IMP-2586 for USP30 were confirmed below 100 nM probe (Fig. 2b and c), whilst engagement of an exemplar unrelated DUB, UCHL1, occurred only at a much higher concentration (30 000 nM). We hypothesise that incomplete modification of USP30 by HA-Ub-VME is likely due to limited retention of USP30 activity in cell lysates, which have likely had the USP30 transmembrane domain compromised, highlighting the potential utility of a small molecule USP30 ABP applicable directly in intact cells. Direct USP30 target engagement by IMP-2587 and IMP-2586 was confirmed in HEK293T cells following 1 h probe treatment followed by cell lysis and CuAAC bio-orthogonal ligation to capture reagent azido-TAMRA-biotin (AzTB) for IMP-2587 or alkyne-TAMRA-biotin for IMP-2586 (Fig. 3a).[27] […] This unspecific background labelling is presumably due to the previously reported higher off-target CuAAC reactivity of an alkyne-bearing capture reagent, applied here due to incorporation of an azide tag in IMP-2586.[28] Moreover, the labelling of USP30 was further confirmed by biotin pulldown and immunoblotting.
2) USP30 in-cell engagement analysis […]
Protein concentration was determined by DC Protein assay (Bio-RAD). […]

[2] = tested on: USP30; conditions: following 30 minutes incubation; read-out: reported IC50 against USP30; cited from earlier work

| SMILES | concentration at which UCHL1 engagement occurred [1] | IC50 [2] [nM] |
| --- | --- | --- |
| C#Cc1cccc(-c2cc(NC(=O)CC3CCN(C#N)C3)on2)c1 (stereo not shown) [IMP-2587] | 30 000 nM |  |
| N#CN1CC[C@H](CC(=O)Nc2cc(-c3cccc(Cl)c3)no2)C1 [compound 1, reference compound] |  | 1 to 10 |
| N#CN1CC[C@@H](NC(=O)c2cc(-c3ccccc3Oc3ccc(N=[N+]=[N-])cc3)n[nH]2)C1 [IMP-2586] | 30 000 nM |  |
| N#CN1CC[C@@H](NC(=O)c2cc(-c3ccccc3Oc3ccccc3)n[nH]2)C1 [compound 3, reference compound] |  | 1.5 |
